Results reported in patent US6740305B1, “Assessment of gastric emptying disorders” (Xanthus Life Scienes, Inc., priority 1999, dated 2004).

Tests used:
[1] = set-up: species or system human; conditions: in vivo, 1.5 mg/kg
Source text: In accordance with the present invention, the solid food to be checked and swallowed as the meal for a gastric emptying test is in the form of an edible, egg fortified muffin from a microwaveable recipe, freshly prepared prior to use. The base formulation consists of a bulk mix containing 92 grams of powdered, defatted milk; 320 grams of apple flavored instant muffin mix, 80 grams of finely grated Parmesan cheese and 0.6 gram of pulverized L-2-oxo[^13C]thiazolidine-4-carboxylic acid (OTZ) tracer probe. The mixture is homogenized in a food mill and stored in individual portions of 61.625 grams. Prior to cooking, the individual muffin mix is reconstituted in a microwaveable plastic dish with 110 ml of water and 61 grams of defatted egg substitute and then thoroughly blended and allowed to stand covered for 0.5 hour at room temperature. After shaking well, the mixture is uncovered and microwaved in a 500 watt oven for 4 minutes at medium power, rotated 120 degrees, and again microwaved for 4 minutes. The muffin is loosened around the edges, allowed to cool, and removed from the cooking container. […]
The samples are analyzed for isotopic content and corrected for interindividual differences in endogenous CO2 production rate in order to obtain the appropriate data points. […]

[2] = tested on: gastric emptying; assay: Breath test with liquid test meal given with drugs known to accelerate or delay gastric emptying (FIG. 6); assay type: in vivo, human; conditions: [acyl]^13C-leucine as emptying probe
Source text: In FIG. 6 summarizing this experiment, metoclopramide is shown as a prokinetic agent. Similarly, loperamide is shown to delay emptying.

SMILES: O=C(O)[C@@H]1CS[13C](=O)N1 [2-[^13C -OTZ, L-2-oxo[^13C]thiazolidine-4-carboxylic acid]
- Absorption kinetics from appearance pattern of ^13CO2 in breath [1]: zero-order absorption kinetics
- T1/2 (half-emptying time) [1]: 19 +/− 4

SMILES: CCN(CC)CCNC(=O)c1cc(Cl)c(N)cc1OC [Metoclopramide, metoclopramide]
- Effect on gastric emptying [2]: accelarated the gastric emptying profile in a statistically significant manner

SMILES: CN(C)C(=O)C(CCN1CCC(O)(c2ccc(Cl)cc2)CC1)(c1ccccc1)c1ccccc1 [loperamide]
- Effect on gastric emptying [2]: emptying times trending toward greater than normal half-emptying values
